# Source: ChEMBL document CHEMBL1201862, “PubChem BioAssay data set” (2004)
# The source made the active and inactive calls.
# How the values were obtained:
# [1] = target: Serine/threonine-protein phosphatase PP1-alpha catalytic subunit (Homo sapiens, UniProt P62136); assay: inhibition of protein phosphatase 1 activity – biochemical, fluorescence, dose response (AID 2394)
# Fatty acid synthase [2] = target: T1, Fatty acid synthase (Homo sapiens, UniProt P49327); assay: inhibition of human FAS-TE enzyme activity – biochemical, kinetic fluorescence intensity, dose response (AID 624326); type: functional;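 further: rate of fluorescence rise from hydrolysis of a fluorogenic O-methyl fluorescein ester substrate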
# [3] = target: T2, Replicative DNA helicase DnaB (Mycobacterium tuberculosis, UniProt P9WMR3); assay: DnaB intein splicing inhibitors, dose response, biochemical, cell-free fluorescence (AID 449749); type: functional
# T2 sequence (P9WMR3 whole entry): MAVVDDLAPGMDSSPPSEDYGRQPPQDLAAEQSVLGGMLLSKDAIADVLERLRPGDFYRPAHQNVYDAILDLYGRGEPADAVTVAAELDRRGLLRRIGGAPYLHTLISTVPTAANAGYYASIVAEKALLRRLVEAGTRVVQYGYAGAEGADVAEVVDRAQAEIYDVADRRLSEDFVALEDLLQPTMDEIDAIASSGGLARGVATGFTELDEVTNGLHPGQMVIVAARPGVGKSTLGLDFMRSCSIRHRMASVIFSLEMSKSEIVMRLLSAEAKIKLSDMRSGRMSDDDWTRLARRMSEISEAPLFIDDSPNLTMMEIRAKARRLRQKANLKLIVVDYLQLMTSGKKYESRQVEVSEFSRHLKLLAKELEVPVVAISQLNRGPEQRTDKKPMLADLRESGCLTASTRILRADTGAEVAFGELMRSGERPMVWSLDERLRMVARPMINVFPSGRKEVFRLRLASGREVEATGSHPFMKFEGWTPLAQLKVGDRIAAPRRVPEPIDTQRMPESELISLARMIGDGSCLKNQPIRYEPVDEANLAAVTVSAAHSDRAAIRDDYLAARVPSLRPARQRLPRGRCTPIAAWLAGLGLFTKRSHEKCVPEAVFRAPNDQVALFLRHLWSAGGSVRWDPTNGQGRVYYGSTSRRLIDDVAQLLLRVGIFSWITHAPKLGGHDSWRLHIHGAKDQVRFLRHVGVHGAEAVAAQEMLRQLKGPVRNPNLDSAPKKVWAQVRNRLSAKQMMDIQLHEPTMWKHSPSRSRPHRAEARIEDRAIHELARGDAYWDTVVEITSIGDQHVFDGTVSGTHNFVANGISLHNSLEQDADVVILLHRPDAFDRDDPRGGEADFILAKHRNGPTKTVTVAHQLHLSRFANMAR
# [4] = target: T3, High affinity choline transporter 1 (Homo sapiens, UniProt Q9GZV3); assay: human choline transporter blockers, potency – cell-based, 10-point CRC, membrane potential dye, dose response (AID 588401); type: functional;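 further: membrane potential dye fluorescence of choline-evoked depolarization via CHT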
# T3 sequence (Q9GZV3 whole entry): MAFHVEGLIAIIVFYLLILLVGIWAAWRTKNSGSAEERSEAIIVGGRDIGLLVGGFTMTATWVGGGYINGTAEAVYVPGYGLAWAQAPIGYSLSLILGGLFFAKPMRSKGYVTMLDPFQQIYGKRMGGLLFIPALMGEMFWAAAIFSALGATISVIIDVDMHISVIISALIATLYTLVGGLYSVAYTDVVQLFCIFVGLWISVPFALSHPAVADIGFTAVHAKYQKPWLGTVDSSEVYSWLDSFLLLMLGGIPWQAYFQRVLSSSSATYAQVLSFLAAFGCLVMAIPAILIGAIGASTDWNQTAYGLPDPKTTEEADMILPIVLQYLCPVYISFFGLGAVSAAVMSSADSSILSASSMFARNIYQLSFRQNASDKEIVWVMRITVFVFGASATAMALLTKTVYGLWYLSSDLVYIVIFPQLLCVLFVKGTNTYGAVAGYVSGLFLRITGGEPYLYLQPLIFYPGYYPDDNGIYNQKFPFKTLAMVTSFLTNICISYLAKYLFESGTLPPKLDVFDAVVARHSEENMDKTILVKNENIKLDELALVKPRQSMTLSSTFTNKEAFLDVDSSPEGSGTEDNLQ
# [5] = target: T3, High affinity choline transporter 1; assay: human choline transporter blockers, potency – cell-based, 5-point CRC, membrane potential dye, dose response (AID 504840); type: functional
# Fatty acid synthase [6] = target: T1, Fatty acid synthase; assay: inhibition of human FAS-TE enzyme activity – biochemical, endpoint fluorescence intensity, uHTS hits, dose response (AID 624327); type: functional;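 further: fluorescence from hydrolysis of an O-methyl fluorescein acyl ester substrate by the enzyme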
# Genome polyprotein = Genome polyprotein (dengue virus type 2, UniProt P29990); assay: flavivirus cap methylation enzyme inhibition – biochemical, confirmation dose response, primary screen (AID 588689); type: functional
# Protein RecA = target: T4, Protein RecA (Mycobacterium tuberculosis, UniProt P9WHJ3); assay: Fluorescence Cell-Free Homogeneous Dose Retest to Identify Inhibitors of RecA-Intein Splicing Activity. [Related pubchem assays (depositor defined):AID2097, AID2223, AID489010, AID492950]; type: functional
# T4 sequence (P9WHJ3 whole entry): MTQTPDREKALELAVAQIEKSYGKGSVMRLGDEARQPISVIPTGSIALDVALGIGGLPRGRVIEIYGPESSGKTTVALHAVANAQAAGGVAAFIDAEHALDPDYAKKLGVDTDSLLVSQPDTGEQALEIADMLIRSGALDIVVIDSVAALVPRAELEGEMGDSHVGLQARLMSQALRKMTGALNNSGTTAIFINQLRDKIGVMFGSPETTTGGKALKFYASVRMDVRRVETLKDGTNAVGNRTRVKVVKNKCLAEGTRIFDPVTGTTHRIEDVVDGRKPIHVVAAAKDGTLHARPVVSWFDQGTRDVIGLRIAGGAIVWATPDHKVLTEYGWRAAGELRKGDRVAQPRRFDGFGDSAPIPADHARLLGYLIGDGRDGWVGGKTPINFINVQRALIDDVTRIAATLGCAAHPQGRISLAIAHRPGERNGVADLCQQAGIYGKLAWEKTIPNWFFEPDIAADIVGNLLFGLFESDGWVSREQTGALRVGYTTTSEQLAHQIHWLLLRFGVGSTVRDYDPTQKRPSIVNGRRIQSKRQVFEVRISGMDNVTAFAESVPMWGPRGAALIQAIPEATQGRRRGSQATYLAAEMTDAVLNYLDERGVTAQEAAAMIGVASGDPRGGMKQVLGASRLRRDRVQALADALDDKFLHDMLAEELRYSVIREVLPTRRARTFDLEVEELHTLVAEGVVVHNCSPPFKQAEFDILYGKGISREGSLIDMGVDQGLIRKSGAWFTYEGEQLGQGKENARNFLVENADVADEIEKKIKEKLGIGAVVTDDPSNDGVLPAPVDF
# [7] = target: T5, Serine/threonine-protein phosphatase (Homo sapiens, UniProt Q9BPW0); assay: inhibition of protein phosphatase 5 activity – biochemical, fluorescence, dose response (AID 2395)
# T5 sequence (Q9BPW0 whole entry): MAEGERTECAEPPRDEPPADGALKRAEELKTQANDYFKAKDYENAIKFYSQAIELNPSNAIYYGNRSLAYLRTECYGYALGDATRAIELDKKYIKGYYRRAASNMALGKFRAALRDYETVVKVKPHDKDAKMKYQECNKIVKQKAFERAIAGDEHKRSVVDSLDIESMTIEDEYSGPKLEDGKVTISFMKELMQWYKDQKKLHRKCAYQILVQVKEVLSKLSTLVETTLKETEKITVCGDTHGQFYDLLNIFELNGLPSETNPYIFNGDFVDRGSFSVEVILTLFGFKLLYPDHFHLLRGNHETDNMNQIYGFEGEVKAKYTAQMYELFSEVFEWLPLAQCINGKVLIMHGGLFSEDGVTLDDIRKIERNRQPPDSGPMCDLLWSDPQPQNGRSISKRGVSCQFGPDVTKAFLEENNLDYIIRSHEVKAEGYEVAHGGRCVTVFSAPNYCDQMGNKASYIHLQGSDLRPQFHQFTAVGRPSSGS
# T1 sequence (P49327 whole entry): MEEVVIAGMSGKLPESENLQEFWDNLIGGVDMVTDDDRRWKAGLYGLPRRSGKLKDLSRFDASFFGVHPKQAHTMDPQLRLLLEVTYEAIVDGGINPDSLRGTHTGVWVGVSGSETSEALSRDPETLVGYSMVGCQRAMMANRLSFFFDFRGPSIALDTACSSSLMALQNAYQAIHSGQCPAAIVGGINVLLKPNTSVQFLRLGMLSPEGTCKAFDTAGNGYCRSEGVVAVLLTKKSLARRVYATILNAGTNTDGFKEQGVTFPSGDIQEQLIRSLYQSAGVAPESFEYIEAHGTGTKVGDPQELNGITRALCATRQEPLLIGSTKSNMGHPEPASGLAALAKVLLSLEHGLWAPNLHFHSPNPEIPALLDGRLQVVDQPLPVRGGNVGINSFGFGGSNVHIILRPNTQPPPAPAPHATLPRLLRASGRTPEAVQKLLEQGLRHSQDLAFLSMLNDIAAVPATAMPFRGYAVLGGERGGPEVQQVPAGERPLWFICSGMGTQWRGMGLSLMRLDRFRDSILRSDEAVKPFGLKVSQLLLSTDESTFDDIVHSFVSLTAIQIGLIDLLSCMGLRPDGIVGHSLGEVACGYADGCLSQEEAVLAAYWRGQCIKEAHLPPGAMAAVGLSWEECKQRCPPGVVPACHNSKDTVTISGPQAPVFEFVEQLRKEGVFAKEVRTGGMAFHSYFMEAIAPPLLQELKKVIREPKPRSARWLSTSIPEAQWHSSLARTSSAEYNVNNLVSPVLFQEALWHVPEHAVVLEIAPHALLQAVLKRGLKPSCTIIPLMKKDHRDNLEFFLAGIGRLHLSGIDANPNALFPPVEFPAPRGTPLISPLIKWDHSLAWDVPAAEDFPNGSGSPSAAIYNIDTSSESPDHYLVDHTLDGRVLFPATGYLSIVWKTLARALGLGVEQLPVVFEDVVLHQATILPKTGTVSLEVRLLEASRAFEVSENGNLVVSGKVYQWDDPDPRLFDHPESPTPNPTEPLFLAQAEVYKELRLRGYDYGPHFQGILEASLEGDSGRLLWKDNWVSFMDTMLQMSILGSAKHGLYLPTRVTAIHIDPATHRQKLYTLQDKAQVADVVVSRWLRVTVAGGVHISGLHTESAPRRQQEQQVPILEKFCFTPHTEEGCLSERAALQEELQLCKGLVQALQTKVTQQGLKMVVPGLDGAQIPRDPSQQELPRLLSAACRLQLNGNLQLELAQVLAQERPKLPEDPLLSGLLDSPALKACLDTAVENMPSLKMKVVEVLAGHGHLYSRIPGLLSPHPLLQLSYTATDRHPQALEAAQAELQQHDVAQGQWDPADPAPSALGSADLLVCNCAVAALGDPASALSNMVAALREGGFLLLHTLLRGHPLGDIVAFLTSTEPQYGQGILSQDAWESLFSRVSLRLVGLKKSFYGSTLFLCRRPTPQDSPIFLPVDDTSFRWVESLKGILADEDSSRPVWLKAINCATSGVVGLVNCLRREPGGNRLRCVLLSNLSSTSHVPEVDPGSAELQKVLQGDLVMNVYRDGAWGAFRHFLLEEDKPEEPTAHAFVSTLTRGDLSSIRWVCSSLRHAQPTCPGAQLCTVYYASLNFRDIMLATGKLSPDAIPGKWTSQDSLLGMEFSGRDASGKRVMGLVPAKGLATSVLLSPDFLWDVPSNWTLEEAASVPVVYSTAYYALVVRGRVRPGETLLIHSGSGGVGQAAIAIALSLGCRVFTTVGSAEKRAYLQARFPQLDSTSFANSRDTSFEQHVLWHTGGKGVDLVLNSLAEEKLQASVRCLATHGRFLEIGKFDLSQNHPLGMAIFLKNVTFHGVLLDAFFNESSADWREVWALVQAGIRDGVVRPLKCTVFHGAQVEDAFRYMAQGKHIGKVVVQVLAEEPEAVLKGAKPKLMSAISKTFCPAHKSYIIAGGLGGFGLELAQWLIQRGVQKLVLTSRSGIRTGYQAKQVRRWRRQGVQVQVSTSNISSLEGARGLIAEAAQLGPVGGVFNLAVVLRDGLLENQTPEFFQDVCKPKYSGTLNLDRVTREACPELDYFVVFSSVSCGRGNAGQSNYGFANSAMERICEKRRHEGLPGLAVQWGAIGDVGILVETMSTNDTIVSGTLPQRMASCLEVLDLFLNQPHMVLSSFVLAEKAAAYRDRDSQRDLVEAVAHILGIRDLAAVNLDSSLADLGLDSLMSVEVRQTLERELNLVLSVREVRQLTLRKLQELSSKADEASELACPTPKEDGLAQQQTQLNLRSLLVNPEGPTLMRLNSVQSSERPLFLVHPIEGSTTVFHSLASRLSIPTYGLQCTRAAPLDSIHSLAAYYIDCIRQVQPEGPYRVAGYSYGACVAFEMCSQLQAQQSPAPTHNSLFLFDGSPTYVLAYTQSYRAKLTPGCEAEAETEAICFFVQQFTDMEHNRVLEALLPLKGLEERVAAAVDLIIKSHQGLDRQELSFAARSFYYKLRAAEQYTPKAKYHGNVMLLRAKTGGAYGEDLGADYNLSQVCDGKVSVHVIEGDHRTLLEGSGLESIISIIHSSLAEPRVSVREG
# Serine/threonine-protein phosphatase PP1-alpha catalytic subunit, sequence (P62136 whole entry): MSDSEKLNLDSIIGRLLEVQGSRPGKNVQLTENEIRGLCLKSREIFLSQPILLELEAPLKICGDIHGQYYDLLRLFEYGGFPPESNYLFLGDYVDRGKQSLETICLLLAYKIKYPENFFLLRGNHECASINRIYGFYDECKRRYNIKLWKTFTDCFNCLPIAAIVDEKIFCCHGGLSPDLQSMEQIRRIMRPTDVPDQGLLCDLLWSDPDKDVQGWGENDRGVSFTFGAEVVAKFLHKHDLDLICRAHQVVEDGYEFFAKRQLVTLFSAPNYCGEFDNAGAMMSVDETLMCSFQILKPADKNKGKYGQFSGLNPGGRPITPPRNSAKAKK
# Genome polyprotein, sequence (P29990 2492-3391 limits assumed): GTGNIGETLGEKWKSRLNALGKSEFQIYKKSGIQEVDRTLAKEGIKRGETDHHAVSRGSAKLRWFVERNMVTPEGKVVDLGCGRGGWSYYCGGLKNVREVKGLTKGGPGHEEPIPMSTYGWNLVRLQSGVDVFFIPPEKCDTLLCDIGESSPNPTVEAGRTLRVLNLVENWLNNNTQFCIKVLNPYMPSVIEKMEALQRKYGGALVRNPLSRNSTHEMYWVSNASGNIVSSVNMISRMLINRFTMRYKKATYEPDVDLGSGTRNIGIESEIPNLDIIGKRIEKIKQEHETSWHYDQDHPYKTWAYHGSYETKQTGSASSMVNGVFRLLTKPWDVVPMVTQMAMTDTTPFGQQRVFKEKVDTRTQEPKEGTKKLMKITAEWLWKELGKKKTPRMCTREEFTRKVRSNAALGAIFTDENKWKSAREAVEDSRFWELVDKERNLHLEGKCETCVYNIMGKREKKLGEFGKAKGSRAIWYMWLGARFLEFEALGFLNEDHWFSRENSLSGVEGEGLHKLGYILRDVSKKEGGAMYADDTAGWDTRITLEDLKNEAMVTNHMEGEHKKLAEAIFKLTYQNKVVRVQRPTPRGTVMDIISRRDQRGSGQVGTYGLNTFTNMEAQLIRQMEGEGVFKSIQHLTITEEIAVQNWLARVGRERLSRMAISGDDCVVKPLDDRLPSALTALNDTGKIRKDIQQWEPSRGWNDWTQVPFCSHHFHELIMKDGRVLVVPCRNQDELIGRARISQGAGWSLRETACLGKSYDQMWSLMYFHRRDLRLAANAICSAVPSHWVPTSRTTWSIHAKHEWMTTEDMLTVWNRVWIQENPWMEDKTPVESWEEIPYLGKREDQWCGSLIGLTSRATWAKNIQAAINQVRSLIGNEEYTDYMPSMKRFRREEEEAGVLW
structure (smiles),measurement,setting,value
Cc1[nH]n(-c2ccccc2)c(=O)c1C(c1ccc([N+](=O)[O-])cc1)c1c(C)[nH]n(-c2ccccc2)c1=O,IC50,[1],29.9 µM (not active)
same,IC50,Fatty acid synthase [2],5.6 µM (active)
same,AC50,[3],1.24 µM (active)
same,IC50,[4],2.82 µM (active)
same,IC50,[5],10.3 µM (active)
same,IC50,Fatty acid synthase [6],3.19 µM (active)
same,IC50,Genome polyprotein,33.2 µM (active)
same,EC50,Protein RecA,0.39 µM (active)
same,IC50,[7],9.57 µM (active)
